Measured values from ChEMBL document CHEMBL1201862, “PubChem BioAssay data set” (2004).
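48-hour exposure; five concentrations; linearly interpolated endpoints. Here, GI50 denotes the concentration required for 50% inhibition of growth.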 Activity calls are given as the source filed them. Rule as the data show it: active = GI50 up to about 1.1 µM and inactive = higher.

Key:
Assay in all cases: NCI anticancer screen, dose series, 48 h
[1] = test system: MDA-MB-435
[2] = test system: M14
[3] = test system: SR
[4] = test system: Hs-578T
[5] = test system: NCI-H23
[6] = test system: A498
[7] = test system: SF-268
[8] = test system: SF-539
[9] = test system: HCC 2998
[10] = test system: SNB-75
[11] = test system: RXF 393
[12] = test system: OVCAR-3
[13] = test system: LOX IMVI
[14] = test system: DU-145
[15] = test system: HL-60
[16] = test system: NCI-H460
[17] = test system: Malme-3M
[18] = test system: ACHN
[19] = test system: MCF7
[20] = test system: U-251

CCN(CC)C(=S)SC1CCOP(=O)(N(CCCl)CCCl)N1C (configuration not stated)
GI50 [1]: > 100 µM (inactive)
GI50 [2]: > 39.7 µM (inactive)
GI50 [3]: 0.185 µM (active)
GI50 [4]: > 100 µM (inactive)
GI50 [5]: > 100 µM (inactive)
GI50 [6]: 44.9 µM (inactive)
GI50 [7]: > 50.7 µM (inactive)
GI50 [8]: 33.4 µM (inactive)
GI50 [9]: 33.4 µM (inactive)
GI50 [10]: > 55.1 µM (inactive)
GI50 [11]: 29.9 µM (inactive)
GI50 [12]: > 100 µM (inactive)
GI50 [13]: 1.41 µM (inactive)
GI50 [14]: > 100 µM (inactive)
GI50 [15]: 0.509 µM (active)
GI50 [16]: 1.02 µM (active)
GI50 [17]: 27.5 µM (inactive)
GI50 [18]: 38.9 µM (inactive)
GI50 [19]: 69.3 µM (inactive)

COc1ccc(N2C(=O)CC(c3c[nH]c4ccccc34)C2=O)cc1 (configuration not stated)
GI50 [1]: > 100 µM (inactive)
GI50 [2]: > 100 µM (inactive)
GI50 [3]: > 100 µM (inactive)
GI50 [4]: 9.08 µM (inactive)
GI50 [5]: > 100 µM (inactive)
GI50 [6]: > 100 µM (inactive)
GI50 [7]: > 100 µM (inactive)
GI50 [8]: > 100 µM (inactive)
GI50 [20]: > 100 µM (inactive)
GI50 [9]: > 100 µM (inactive)
GI50 [11]: > 100 µM (inactive)
GI50 [12]: > 100 µM (inactive)
GI50 [13]: > 100 µM (inactive)
GI50 [14]: > 100 µM (inactive)
GI50 [15]: > 100 µM (inactive)
GI50 [16]: > 100 µM (inactive)
GI50 [17]: > 100 µM (inactive)
GI50 [18]: > 100 µM (inactive)
GI50 [19]: > 100 µM (inactive)

CCN(CC)CCOC(=O)CCN1CC2CCC(CC2)C1
GI50 [1]: > 100 µM (inactive)
GI50 [2]: > 100 µM (inactive)
GI50 [3]: > 100 µM (inactive)
GI50 [4]: > 100 µM (inactive)
GI50 [5]: > 100 µM (inactive)
GI50 [6]: > 100 µM (inactive)
GI50 [8]: > 100 µM (inactive)
GI50 [20]: > 100 µM (inactive)
GI50 [9]: > 100 µM (inactive)
GI50 [10]: 78.2 µM (inactive)
GI50 [11]: > 100 µM (inactive)
GI50 [12]: > 100 µM (inactive)
GI50 [13]: > 100 µM (inactive)
GI50 [14]: > 100 µM (inactive)
GI50 [15]: > 100 µM (inactive)
GI50 [16]: > 100 µM (inactive)
GI50 [17]: > 100 µM (inactive)
GI50 [18]: > 100 µM (inactive)
GI50 [19]: > 100 µM (inactive)

CCOC(=O)/C=C/[C@H](O[Si](c1ccccc1)(c1ccccc1)c1ccccc1)C(C)(C)C
GI50 [1]: > 31.6 µM (inactive)
GI50 [2]: 73.8 µM (inactive)
GI50 [3]: > 10 µM (inactive)
GI50 [4]: 20.5 µM (inactive)
GI50 [5]: > 31.6 µM (inactive)
GI50 [6]: > 31.6 µM (inactive)
GI50 [7]: > 31.6 µM (inactive)
GI50 [8]: > 31.6 µM (inactive)
GI50 [20]: > 31.6 µM (inactive)
GI50 [9]: 5.92 µM (inactive)
GI50 [10]: > 31.6 µM (inactive)
GI50 [11]: 15.5 µM (inactive)
GI50 [12]: > 31.6 µM (inactive)
GI50 [13]: > 31.6 µM (inactive)
GI50 [14]: > 31.6 µM (inactive)
GI50 [15]: > 100 µM (inactive)
GI50 [16]: > 10 µM (inactive)
GI50 [17]: > 31.6 µM (inactive)
GI50 [18]: > 31.6 µM (inactive)
GI50 [19]: > 31.6 µM (inactive)

COC(=O)C12CCC(C)(C)CC1C1=CCC3C4(C)CC(O)C(O)C(C)(C(=O)OC)C4CCC3(C)C1(CO)CC2 (configuration not stated)
GI50 [1]: 15.1 µM (inactive)
GI50 [2]: 6.75 µM (inactive)
GI50 [3]: 3.42 µM (inactive)
GI50 [4]: 12.6 µM (inactive)
GI50 [5]: 15.5 µM (inactive)
GI50 [6]: 18.7 µM (inactive)
GI50 [7]: 18.5 µM (inactive)
GI50 [8]: 15.7 µM (inactive)
GI50 [20]: 18.5 µM (inactive)
GI50 [9]: 13.9 µM (inactive)
GI50 [10]: 11.9 µM (inactive)
GI50 [11]: 6.68 µM (inactive)
GI50 [12]: 16.7 µM (inactive)
GI50 [13]: 14 µM (inactive)
GI50 [14]: 15.5 µM (inactive)
GI50 [15]: 7.52 µM (inactive)
GI50 [16]: 15.7 µM (inactive)
GI50 [18]: 13.9 µM (inactive)
GI50 [19]: 14.1 µM (inactive)

CC1C(=O)CC[C@@]2(C)C(=O)CCCC12O (some centres not stated)
GI50 [1]: > 100 µM (inactive)
GI50 [2]: > 100 µM (inactive)
GI50 [3]: > 100 µM (inactive)
GI50 [4]: > 100 µM (inactive)
GI50 [5]: > 100 µM (inactive)
GI50 [6]: > 100 µM (inactive)
GI50 [7]: > 100 µM (inactive)
GI50 [8]: > 100 µM (inactive)
GI50 [20]: > 100 µM (inactive)
GI50 [9]: > 100 µM (inactive)
GI50 [11]: > 100 µM (inactive)
GI50 [12]: > 100 µM (inactive)
GI50 [13]: > 100 µM (inactive)
GI50 [14]: > 100 µM (inactive)
GI50 [15]: > 100 µM (inactive)
GI50 [16]: > 100 µM (inactive)
GI50 [17]: > 100 µM (inactive)
GI50 [18]: > 100 µM (inactive)
GI50 [19]: > 100 µM (inactive)

COC1/C=C\C=C(/C)C(=O)Nc2cc3nc4ccc(Br)cc4oc-3c(c2=O)CC(C)CC(OC)C(O)C(C)/C=C(\C)C1OC(N)=O (configuration not stated)
GI50 [1]: 0.00389 µM (active)
GI50 [2]: 0.0453 µM (active)
GI50 [3]: 0.0116 µM (active)
GI50 [4]: 0.0628 µM (active)
GI50 [6]: 13.5 µM (inactive)
GI50 [7]: 0.499 µM (active)
GI50 [8]: 0.44 µM (active)
GI50 [20]: 4.46 µM (inactive)
GI50 [9]: 0.126 µM (active)
GI50 [10]: 7.08 µM (inactive)
GI50 [11]: < 0.0112 µM (active)
GI50 [12]: 0.082 µM (active)
GI50 [13]: 0.0565 µM (active)
GI50 [14]: 0.0458 µM (active)
GI50 [15]: 0.0128 µM (active)
GI50 [16]: 0.63 µM (active)
GI50 [17]: 0.0179 µM (active)
GI50 [18]: 0.21 µM (active)
GI50 [19]: 0.000752 µM (active)

CCN(CC)CC(O)c1ccc2ccc3ccccc3c2c1 (configuration not stated)
GI50 [1]: 16.3 µM (inactive)
GI50 [2]: 16.3 µM (inactive)
GI50 [3]: 5.69 µM (inactive)
GI50 [4]: 18.7 µM (inactive)
GI50 [5]: 16.9 µM (inactive)
GI50 [6]: 12.6 µM (inactive)
GI50 [7]: 17.8 µM (inactive)
GI50 [8]: 12.6 µM (inactive)
GI50 [20]: 13.3 µM (inactive)
GI50 [9]: 11 µM (inactive)
GI50 [10]: 19.1 µM (inactive)
GI50 [11]: 16.8 µM (inactive)
GI50 [12]: 15.7 µM (inactive)
GI50 [13]: 17.9 µM (inactive)
GI50 [14]: 19 µM (inactive)
GI50 [15]: 14.1 µM (inactive)
GI50 [16]: 17.5 µM (inactive)
GI50 [17]: 16.9 µM (inactive)
GI50 [18]: 14.3 µM (inactive)
GI50 [19]: 14.8 µM (inactive)

CC1=C(C#N)C2C(=C(N)Oc3ccccc32)C(N)=N1 (configuration not stated)
GI50 [1]: 27.7 µM (inactive)
GI50 [2]: 20.7 µM (inactive)
GI50 [3]: 40.8 µM (inactive)
GI50 [4]: 26.1 µM (inactive)
GI50 [5]: > 10 µM (inactive)
GI50 [6]: 24 µM (inactive)
GI50 [7]: 24.5 µM (inactive)
GI50 [8]: 30.1 µM (inactive)
GI50 [20]: 34 µM (inactive)
GI50 [9]: 29.4 µM (inactive)
GI50 [10]: 18.7 µM (inactive)
GI50 [11]: 22.7 µM (inactive)
GI50 [12]: 44.8 µM (inactive)
GI50 [13]: 20.1 µM (inactive)
GI50 [14]: 21.1 µM (inactive)
GI50 [15]: 29.1 µM (inactive)
GI50 [17]: 16 µM (inactive)
GI50 [18]: 27.7 µM (inactive)
GI50 [19]: 6.56 µM (inactive)

COc1ccc(-n2c(CCC(=O)O)nc3c2C(=O)c2ccccc2C3=O)cc1
GI50 [1]: 96.4 µM (inactive)
GI50 [2]: > 100 µM (inactive)
GI50 [3]: > 100 µM (inactive)
GI50 [4]: > 100 µM (inactive)
GI50 [5]: > 100 µM (inactive)
GI50 [6]: > 100 µM (inactive)
GI50 [7]: > 100 µM (inactive)
GI50 [8]: > 100 µM (inactive)
GI50 [20]: > 100 µM (inactive)
GI50 [9]: > 100 µM (inactive)
GI50 [10]: > 100 µM (inactive)
GI50 [11]: > 100 µM (inactive)
GI50 [12]: 98.2 µM (inactive)
GI50 [13]: 28.3 µM (inactive)
GI50 [14]: > 100 µM (inactive)
GI50 [15]: > 100 µM (inactive)
GI50 [16]: > 100 µM (inactive)
GI50 [18]: > 100 µM (inactive)
GI50 [19]: 84.5 µM (inactive)
